Source: US20100104669A1, “Method for preparing an aqueous solution containing triterpenic acid, aqueous solution containing triterpenic acid, and use thereof” (priority 2008, published 2010)

Experiments:
[1] = triterpenic acid content of basic aqueous solution (trisodium phosphate extraction, Example 1); format: physicochemical; conditions: water with trisodium phosphate, extracted at 120° C. and >2 bar, cooled to room temperature, filtered through 0.22 μm filter
Protocol: Dried annual shoots of mistletoe were extracted with n-heptane at 120° C. and >2 bar pressure. The precipitate obtained upon cooling of the extraction agent was composed of more than 60% oleanolic acid and more than 3% betulinic acid. The triterpenic acid-rich powder thus obtained was extracted with water in the presence of trisodium phosphate at 120° C. and >2 bar pressure to produce a supersaturated basic solution.
The basic triterpenoid-rich solution, cooled to room temperature and filtered through a 0.22 μm filter, contained more than 80 μg/mL oleanolic acid and more than 8 μg/mL betulinic acid. The basic solution thus prepared was then adjusted to pH 7.4 using an aqueous phosphoric acid solution, in the presence of 1.6 μg/mL polysaccharides which had been obtained from mistletoe berries. The extent of dilution and the solvent quantities were selected in such a way that the salt concentration of the neutralized triterpenic acid-rich solution was between 5 and 140 mM.

[2] = triterpenic acid content of basic aqueous solution with cyclodextrins (Example 4); format: physicochemical; conditions: water with trisodium phosphate (10 mM) and 2 mg/mL cyclodextrins, 120° C. and >2 bar
Protocol: The triterpenoid-rich powder described in Example 1 was extracted with water in the presence of trisodium phosphate (10 mM) and 2 mg/mL cyclodextrins at 120° C. and >2 bar.
The basic triterpenic acid-rich solution contained more than 100 μg/mL oleanolic acid and more than 8 μg/mL betulinic acid. The basic solution thus prepared was then adjusted to pH 7.4 using an aqueous phosphoric acid solution. The extent of dilution and the solvent quantities were selected in such away that the salt concentration of the neutralized triterpenic acid-rich solution was between 5 and 140 mM.

## CC1(C)CC[C@]2(C(=O)O)CC[C@]3(C)C(=CC[C@@H]4[C@@]5(C)CC[C@H](O)C(C)(C)[C@@H]5CC[C@]43C)[C@@H]2C1 [oleanolic acid]
[1]
  content in basic triterpenoid-rich solution: more than 80 μg/mL
[2]
  content in basic triterpenic acid-rich solution: more than 100 μg/mL
